# Measured values taken from article PMC3780361 (Bioorganic & medicinal chemistry, 2013).
# System: M. tuberculosis strains resistant to 1
# Type: cell-based
row,Compound,Cross resistance with strains resistant to 1
1,"CC(C)(C)c1cc(NC(=O)NC2C3CC4CC(C3)CC2C4)no1 (centres unmarked) [Compound 46, 1-(2-adamantyl)-3-(5-t-butylisoxazol-3-yl)urea]",confirmed as on target against MmpL3
2,"O=C(Nc1nnc(C2CCC2)o1)NC1C2CC3CC(C2)CC1C3 (centres unmarked) [Compound 51, 1-(2-adamantyl)-3-(5-cyclobutyl-1,3,4-oxadiazol-2-yl)urea]",confirmed as on target against MmpL3
